# From PMC9926234, “Iterative computational design and crystallographic screening identifies potent inhibitors targeting the Nsp3 macrodomain of SARS-CoV-2” (Proceedings of the National Academy of Sciences of the …, 2023)
# Where two headings read alike, the source gives them in different places.
# What was measured:
# Assay type in all cases: binding
# [1] = molecular target: T1, SARS-CoV-2 NSP3 Mac1 (Severe acute respiratory syndrome coronavirus 2, UniProt P0DTD1); experiment: biochemical; conditions: for IC50: read-out: IC50; for Ki: read-out: Ki***
# [2] = molecular target: T1, SARS-CoV-2 NSP3 Mac1; conditions: for binding to Mac1 in crystal soaking, result in words: soaks at 10 to 20 mM; for Refined occupancy: ligand occupancy after refinement (phenix.refine)
# [3] = molecular target: T1, SARS-CoV-2 NSP3 Mac1; parameters: contains a conserved macrodomain enzyme (Mac1); conditions: for Spearman est (compound concentration vs apparent Tm): DSF dose responsiveness, 1 µM nsp3 mac1, adj p given; for DSF max dTma: maximal thermal upshift vs DMSO control
# In short: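 ΔTma values are thermal shifts relative to a co-located DMSO-only control, read with 5 µM Fluorescent Yellow dye. Each compound was tested in triplicate over seven concentrations (two-fold steps, top 1,000 or 100 μM). Spearman correlation of concentration versus ΔTma tested whether the shift was dose-responsive.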
# [4] = HTRF ADPr-peptide displacement from SARS-CoV-2 Mac1
# [5] = HTRF, several values in a cell are separate determinations
# [6] = Ki estimation from HTRF-derived IC50, Cheng-Prusoff, peptide 400nM, Kd 2.68µM
# [7] = overall hit flag: binding in crystallographic soaking or the HTRF-based binding assay
# [8] = true hit = binding in crystallographic soaking or the HTRF-based binding assay
# [9] = PanDDA event map, 1 minus background density correction, crystal soaking of Mac1
# [10] = PanDDA event map 1-BDC, crystal soak, Compound_concentration 100 mM, PanDDA run dmso_34 or nohits_35 per dataset
# [11] = crystal soak, Compound_concentration 100 mM, Echo dispense 40 nl, PanDDA run dmso_34 or nohits_35 per dataset
# [12] = ligand modeled from this dataset, compound concentration 100 mM
# [13] = ligand modeled in this dataset, crystal soak, Compound_concentration 100 mM
Structure (SMILES),"IC50 [1, 4]","Ki [1, 6]",IC50 ([1]; HTRF),"HIT* [2, 8]",Refined occupancy ([2]; crystal soaking of Mac1),"1-BDC [2, 10]","PanDDA hit? [2, 11]",other results
Cc1[nH]c2ncnc(N3CCOC(CC(F)(F)F)C3)c2c1C (centres unmarked) [Z2051],137 µM,119 µM,–,–,–,–,–,"IC50 [1, 5]: 137 µM; HIT* [2, 7]: Y; binding to Mac1 in crystal soaking, result in words [2]: not confirmed by X-ray crystallography; Spearman est (compound concentration vs apparent Tm) [3]: 0.51; DSF max dTma [3]: 0.51 °C"
CC1(C)CN(c2ncnc3[nH]c4ccccc4c23)CC(CC(=O)O)O1 (centres unmarked) [Z2215],–,101 µM,116 µM,Y,–,–,–,–
CCc1c[nH]c2ncnc(N3CCC[C@H](C(N)=O)C3)c12 [Z3271],204 µM,177 µM,–,–,–,–,–,"IC50 [1, 5]: 204 µM; HIT* [2, 7]: Y; binding to Mac1 in crystal soaking, result in words [2]: not confirmed by X-ray crystallography; Spearman est (compound concentration vs apparent Tm) [3]: 0.97; DSF max dTma [3]: 1.77 °C"
O=S1(=O)CCC2(CCCN(c3ncnc4[nH]ccc34)C2)C1 (centres unmarked) [Z4305],170 µM,148 µM,–,–,76,–,–,"IC50 [1, 5]: 170 µM; 1-BDC ([2]; PanDDA 1-BDC (background density correction) of the event, crystal soak 100 mM, PanDDA run dmso_34): 0.38; 1-BDC [2, 9]: 0.38; PanDDA hit? ([2]; crystal soak, compound concentration 100 mM, PanDDA run dmso_34, series docking_lead-like_1): TRUE; Modeled? ([2]; ligand modeled in the crystal structure, crystal soak 100 mM, PanDDA run dmso_34): TRUE; HIT* [2, 7]: Y; Spearman est (compound concentration vs apparent Tm) [3]: 0.77; DSF max dTma [3]: 1.26 °C"
O=C(O)C(F)(F)F.O=C(O)C1CN(c2ncnc3[nH]c4ccccc4c23)CC12CCC2 (centres unmarked) [Z4706],–,13.4 µM,15.4 µM,Y,–,–,–,–
O=C(O)CC1CCN(c2ncnc3[nH]c4ccccc4c23)CCC1(F)F (centres unmarked) [Z6423],–,124 µM,143 µM,Y,–,–,–,–
Nc1ccc(C(=O)OC2c3ccccc3CC2C(=O)O)c(O)c1 (centres unmarked) [Z8507],144 µM,–,–,–,74,–,–,"Ki [1]: 125 µM; 1-BDC ([2]; PanDDA event map background density correction, crystal soak, compound concentration 100 mM): 0.37; 1-BDC (PanDDA) [2, 9]: 0.37; Modeled? ([2]; ligand modeled in the crystal structure, crystal soak, compound concentration 100 mM): TRUE; HIT* ([2]; overall hit call: binding in crystallographic soaking or the HTRF-based binding assay): Y"
O=C(Nc1ccc(C(=O)NC2c3cccc(O)c3CC2C(=O)O)cn1)NC1CC1 (centres unmarked) [Z8539_0054],–,13.9 µM,16 µM,Y,–,–,–,–
O=C(Nc1ccc(C(=O)NC2c3cccc(O)c3CC2C(=O)O)c(Cl)c1)NC1CC1 (centres unmarked) [Z8539_0055],9.6 µM,8.7 µM,10 µM,Y,26,0.22,TRUE,"1-BDC [2, 9]: 0.13; Modeled? [2, 12]: TRUE"
Nc1cc(NC(=O)NC2CC2)ccc1C(=O)NC1c2cccc(O)c2CC1C(=O)O (centres unmarked) [Z8539_0059],0.9 µM,0.7 µM,0.8 µM,Y,50,0.25,TRUE,"1-BDC (PanDDA) [2, 9]: 0.25; Modeled? [2, 13]: TRUE"
O=C(Nc1ccc(C(=O)NC2c3cccc(O)c3CC2C(=O)O)c2scnc12)NC1CC1 (centres unmarked) [Z8539_0065],3.3 µM,4.2 µM,4.8 µM,Y,18,0.09,TRUE,"1-BDC (PanDDA) [2, 9]: 0.09; Modeled? [2, 13]: TRUE"
CNC(=O)Nc1ccc(C(=O)NC2c3cccc(O)c3CC2C(=O)O)cc1 (centres unmarked) [Z8539_0077],–,0.9 µM,1 µM,Y,40,0.25,TRUE,"binding to Mac1 in the HTRF assay, result in words [1]: did not substantially change binding affinity; 1-BDC [2, 9]: 0.2; Modeled? [2, 12]: TRUE"
O=C(O)CC1CN(c2ncnc3[nH]c4ccccc4c23)CCO1 (centres unmarked) [Z9596],–,32.3 µM,37.1 µM,Y,–,–,–,–
